Source: patent US12297240B2, “Peptide” (Kyoto University, priority 2015, dated 2025)

Columns and labels:
ddY mice [1] = assay: Elevated plus-maze test (EPM); assay type: in vivo
From the text: The elevated plus-maze includes two open arms (25×5 cm) and two closed arms (25×5×15 cm), which are joined to a central platform 50 cm high above the floor (see FIG. 3A). Because the closed arms are surrounded by walls, a mouse can safely walk in the closed arms in spite of the elevated position. On the other hand, because the open arms are not surrounded by walls, a mouse walking along the open arms feels anxious that it may fall from the elevated position. Thus, the more time the mouse spends in the open arms, or the greater the number of entries into the open arms, the less anxious the mouse feels. Thus, the anxiolytic activity is determined based on these indices.
Each mouse was placed on a portion of the central platform facing one of the open arms 30 minutes after the administration, and the test was started. During the 5-minute test time, the cumulative time spent in the open arms (time in open arms), the number of visits to the open arms (visit to open arms), and the total number of visits to any of the arms (total visits) were recorded. The percentage of time spent in the open arms and the percentage of the number of visits to the open arms were calculated as indices of anxiety.

[2] = tested on: serotonin 5-HT1A, dopamine D1, and GABAA receptors; assay: Tail suspension test in combination with receptor antagonists (mechanism of action); assay type: in vivo, mice; conditions: 0.3 mg/kg p.o. with WAY100135 10 mg/kg, SCH23390 30 μg/kg or bicuculline 30 mg/kg (Example 8, FIG. 11)
Experimental: (§1) The test was carried out (0 minutes) 30 minutes after administration of a test substance, and the immobility time during the period from 0 to 6 minutes was measured (FIG. 2).
(§2) The tail suspension test was performed using mice to which 30 mg/kg of the thermolysin digest of β-CG was orally administered (p.o.) in combination with each of the antagonists of various receptors. Three kinds of antagonists, i.e., WAY100135, which is an antagonist of the serotonin 5-HT1A receptor (dose: 10 mg/kg), SCH23390, which is an antagonist of the dopamine D1 receptor (dose: 30 μg/kg), and bicuculline, which is an antagonist of the GABA-A receptor (dose: 30 mg/kg), were used.
as §2, with “which 0.3” for “which 30”, “the peptide LSSTQAQQSY (SEQ ID NO: 1)” for “the thermolysin digest of β-CG”

ddY mice [3] = assay: Forced swim test; assay type: in vivo; conditions: 1 mg/kg or more orally; doses tested 0.3, 1 mg/kg (Example 5, FIG. 8)
Experimental: The test was carried out (0 minutes) 30 minutes after administration of a test substance, and the immobility time during the period from 0 to 8 minutes was measured (FIG. 2).
(§3) As in the tail suspension test, when an antidepressant drug, such as imipramine, is administered, the immobility time is reduced. Thus, when a reduction in the immobility time is observed, it can be evaluated that the test substance has an antidepressant-like effect. Immobility is considered a despair state; therefore, a reduction in the immobility time also serves as an index for improvement of a despair state, i.e., enhancement of motivation.

ddY mice [4] = assay: Open field test; assay type: in vivo
Experimental: Similar to the case of the elevated plus-maze test, the higher the percentage of exploratory behaviors of a mouse in the center portion of a circle, the less anxious the mouse feels. Thus, the anxiolytic activity is determined based on this index.
Each mouse was placed in an open field 30 minutes after the administration, and the test was started. The percentage of exploratory behaviors in the center portion of the circle (the time spent in the center circle (open field) (Time in 12 cm circle) and the percentage of the number of visits to the center circle (Visits in 12 cm circle)) during the 5-minute test time were evaluated.

ddY mice [5] = assay: Tail suspension test; assay type: in vivo
Experimental: as §1
as §3, with “When” for “As in the tail suspension test, when”

For “LSSTQAQQSY (Designed peptide) [10-residue peptide from thermolysin digest of soybean β-conglycinin; synthesized by a standard method]”, the “percentage of time spent in the open arms” value (ddY mice [1]; 1 mg/kg orally, doses tested 0.1, 0.3, 1 mg/kg (Example 10, FIG. 14)) was “significantly increased”, the “total number of entries (amount of activities)” value (ddY mice [1]; 0.1, 0.3 or 1 mg/kg (Example 10, FIG. 14)) was “no significant difference” and the “reduction in the immobility time in combination with antagonists” value [2] was “significantly suppressed”. The immobility time (ddY mice [3]) was “significantly reduced”, the “number of visits to the center circle (open field)” value (ddY mice [4]; 1 mg/kg orally (Example 11, FIG. 15)) was “significantly increased” and the “time spent in the center circle (open field)” value (ddY mice [4]; 1 mg/kg orally, doses tested 0.1, 0.3, 1 mg/kg (Example 11, FIG. 15)) was “significantly increased”. The amount of activities (ddY mice [4]; 0.1, 0.3 or 1 mg/kg (Example 11, FIG. 15)) was “no significant difference”, the immobility time (ddY mice [5]; 0.3 mg/kg or more orally, doses tested 0.1, 0.3, 1, 3 mg/kg (Example 4, FIG. 7)) was “significantly reduced” and the immobility time (ddY mice [5]; 0.3 mg/kg orally, C-terminal variants (Example 12, FIG. 16)) was “strongest immobility time reducing effect”. The immobility time (ddY mice [5]; 0.3 mg/kg orally, structure-activity relationships (Example 6, FIG. 9)) was “strongest immobility time reducing effect”.
